Assay in all cases: spectrophotometric enzyme assay, recombinant human enzyme, […] ATP-Mg2+
Common to all, as to type: biochemical

One experiment addresses T1, hexokinase 1 (∆21-hHK1) (Homo sapiens, UniProt P19367).
T1 sequence (P19367 22-917): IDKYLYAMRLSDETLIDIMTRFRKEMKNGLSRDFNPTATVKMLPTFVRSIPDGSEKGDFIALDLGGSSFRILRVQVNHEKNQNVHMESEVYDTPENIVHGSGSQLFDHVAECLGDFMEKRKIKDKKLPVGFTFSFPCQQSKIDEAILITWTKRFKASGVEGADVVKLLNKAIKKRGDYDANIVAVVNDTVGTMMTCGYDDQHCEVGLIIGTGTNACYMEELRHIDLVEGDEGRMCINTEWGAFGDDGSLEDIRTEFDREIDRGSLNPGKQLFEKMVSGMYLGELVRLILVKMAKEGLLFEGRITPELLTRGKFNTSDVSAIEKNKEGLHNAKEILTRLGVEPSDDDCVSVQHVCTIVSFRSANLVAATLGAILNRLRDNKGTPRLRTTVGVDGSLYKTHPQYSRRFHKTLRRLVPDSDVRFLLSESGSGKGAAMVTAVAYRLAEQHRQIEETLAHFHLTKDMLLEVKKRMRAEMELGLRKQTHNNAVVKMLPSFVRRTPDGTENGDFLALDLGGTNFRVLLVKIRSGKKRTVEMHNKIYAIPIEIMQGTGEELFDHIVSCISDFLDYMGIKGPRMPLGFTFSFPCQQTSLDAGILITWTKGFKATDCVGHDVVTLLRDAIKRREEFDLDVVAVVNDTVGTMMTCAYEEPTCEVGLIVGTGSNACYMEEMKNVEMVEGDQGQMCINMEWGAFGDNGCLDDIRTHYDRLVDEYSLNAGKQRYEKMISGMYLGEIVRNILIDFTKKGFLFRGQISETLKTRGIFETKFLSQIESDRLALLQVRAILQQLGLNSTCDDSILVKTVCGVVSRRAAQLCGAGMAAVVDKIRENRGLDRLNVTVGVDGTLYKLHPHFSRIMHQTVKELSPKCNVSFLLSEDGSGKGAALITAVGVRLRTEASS

The next experiment addresses T2, hexokinase 2 (∆28-hHK2) (Homo sapiens, UniProt P52789).
T2 sequence (P52789 29-917): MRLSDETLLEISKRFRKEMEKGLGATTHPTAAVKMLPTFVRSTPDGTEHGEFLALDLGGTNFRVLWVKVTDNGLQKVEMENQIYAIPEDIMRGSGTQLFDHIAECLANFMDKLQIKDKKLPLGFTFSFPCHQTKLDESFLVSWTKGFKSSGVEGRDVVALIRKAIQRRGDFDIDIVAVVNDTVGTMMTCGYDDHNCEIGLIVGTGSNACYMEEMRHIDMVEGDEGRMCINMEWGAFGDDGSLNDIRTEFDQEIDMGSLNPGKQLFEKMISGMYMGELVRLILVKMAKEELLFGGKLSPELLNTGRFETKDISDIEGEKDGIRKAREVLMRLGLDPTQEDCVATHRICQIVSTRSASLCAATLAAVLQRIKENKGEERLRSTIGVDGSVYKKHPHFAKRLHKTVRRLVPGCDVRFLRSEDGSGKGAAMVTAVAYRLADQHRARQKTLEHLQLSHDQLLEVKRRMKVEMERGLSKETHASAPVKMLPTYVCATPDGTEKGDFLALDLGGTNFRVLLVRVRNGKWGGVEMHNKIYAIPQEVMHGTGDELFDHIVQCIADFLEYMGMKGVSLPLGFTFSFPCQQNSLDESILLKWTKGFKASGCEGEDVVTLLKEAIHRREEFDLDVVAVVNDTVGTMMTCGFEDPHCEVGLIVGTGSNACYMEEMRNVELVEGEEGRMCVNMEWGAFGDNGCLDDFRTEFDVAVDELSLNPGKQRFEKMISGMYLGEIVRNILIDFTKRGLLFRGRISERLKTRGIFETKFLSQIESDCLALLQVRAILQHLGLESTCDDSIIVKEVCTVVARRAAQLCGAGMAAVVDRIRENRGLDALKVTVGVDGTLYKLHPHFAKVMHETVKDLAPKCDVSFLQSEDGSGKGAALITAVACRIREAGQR

In a further experiment the target is T3, hexokinase 3 (hHK3) (Homo sapiens, UniProt P52790).
T3 sequence (P52790 1-923): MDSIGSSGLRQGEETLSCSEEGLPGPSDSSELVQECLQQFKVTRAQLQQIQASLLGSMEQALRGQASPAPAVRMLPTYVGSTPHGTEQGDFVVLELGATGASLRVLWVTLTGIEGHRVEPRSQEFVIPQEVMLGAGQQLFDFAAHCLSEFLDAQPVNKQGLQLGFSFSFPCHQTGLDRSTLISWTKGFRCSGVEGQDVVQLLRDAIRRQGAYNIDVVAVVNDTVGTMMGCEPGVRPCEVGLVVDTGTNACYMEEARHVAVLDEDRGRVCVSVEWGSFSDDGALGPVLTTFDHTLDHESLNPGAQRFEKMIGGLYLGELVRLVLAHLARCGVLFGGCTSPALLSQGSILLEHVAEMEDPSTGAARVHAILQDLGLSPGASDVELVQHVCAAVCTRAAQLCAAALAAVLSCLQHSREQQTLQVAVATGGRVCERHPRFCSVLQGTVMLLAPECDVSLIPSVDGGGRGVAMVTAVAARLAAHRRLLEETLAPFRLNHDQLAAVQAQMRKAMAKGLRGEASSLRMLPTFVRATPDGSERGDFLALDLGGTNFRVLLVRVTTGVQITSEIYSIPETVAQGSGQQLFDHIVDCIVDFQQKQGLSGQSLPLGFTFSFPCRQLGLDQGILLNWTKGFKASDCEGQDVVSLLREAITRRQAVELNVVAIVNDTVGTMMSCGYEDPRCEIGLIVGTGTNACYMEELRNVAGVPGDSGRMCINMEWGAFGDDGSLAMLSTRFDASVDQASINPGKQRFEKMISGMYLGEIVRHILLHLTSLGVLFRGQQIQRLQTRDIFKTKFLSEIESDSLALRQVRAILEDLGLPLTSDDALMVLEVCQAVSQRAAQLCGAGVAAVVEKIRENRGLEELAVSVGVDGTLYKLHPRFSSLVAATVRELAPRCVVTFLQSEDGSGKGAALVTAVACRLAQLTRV

The structures appear in SMILES notation.

The Ki is a dissociation constant, usually derived from enzyme kinetics or from competition with a known ligand.

For the compound `O=P(O)(O)OC[C@H]1OC[C@H](O)[C@@H](O)[C@@H]1O` [1,5AG6P, 1,5-anhydroglucitol-6-phosphate], the results for the Ki on hexokinase 1 (∆21-hHK1), on hexokinase 2 (∆28-hHK2) and at hexokinase 3 (hHK3) were 53 ± 2 µM, 96 ± 3 µM and 134 ± 9 µM, respectively.
